# Experimental data from patent publication US5560924A, “Medicament containing a 2-arylpropionic acid derivative in nanosol form and its preparation” (priority 1994, dated 1996).
# Tests used:
# [1] = cited from earlier work
# [2] = rapid test for determination of the particle surface charge with standard gelatins; format: physicochemical; conditions: rapid test at pH 4.5, standard type A (IEP 9.5) and type B (IEP 3.5) gelatins, 200 bloom
# Experimental: In a first rapid test it is determined what charge the precipitated particles have. […] If the particles are, for example, negatively charged, a gelatin is picked which is positively charged under the given pH conditions. This rapid test for the determination of the particle charge has the advantages that it can be carried out without a great outlay in terms of apparatus and time. A time-consuming and inaccurate zeta potential measurement can thus be dispensed with entirely.
# At the same dose of the pharmaceutical substance, in the case of the gelatin which is unsuitable in its state of charge a colloidal system will either not form or immediately become unstable or the pharmaceutical substance will flocculate. If the resulting particles are negatively charged, they are stabilized rather by the gelatin solution of Type A, which is positively charged at a pH of 6, than by the solution containing Type B gelatin; in contrast, in this case Type B either will form no colloidal system or the system will immediately destabilize. The flocculation of the particles can be monitored e.g. via a simple turbidity measurement.
# Under identical test conditions, the standard type A gelatin (IEP 9.5/200 bloom) yields a briefly stable nanosol.
# [3] = cited from earlier work; remark: listed apart in the source
Compound,tmax (time to blood level maximum) ([1]; conventional ibuprofen) [h],time until therapeutic concentrations are achieved ([1]; in 2 of 8 subjects investigated),surface charge of the particles [2],pKa [3]
"CC(C)Cc1ccc(C(C)C(=O)O)cc1 (racemic) [ibuprofen, 2-(4-isobutylphenyl)propionic acid]",1 to 2,more than 4 hours,,
"CC(C(=O)O)c1cccc(C(=O)c2ccccc2)c1 (racemic) [ketoprofen, 2-(3-benzoylphenyl)propionic acid]",,,negative surface charge,5.3
